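In this assay, cells in 96-well plates receive the compound at five concentrations for 48 hours. Endpoints are linearly interpolated between the surrounding concentrations. At the GI50, growth is halved.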 Active and inactive are the calls of the source. No stated cut-off is given here; in the data, active = GI50 up to about 1.1 µM and inactive = higher.

Among the test systems are T47D; MCF7; SN12C; RXF 393; MDA-MB-231; SF-268; RPMI-8226; Malme-3M; UACC-257; SK-OV-3; CAKI-1; CCRF-CEM; SR; SK-MEL-5; ACHN; M14; SNB-75; Hs-578T; OVCAR-8.
What all share (test): NCI tumour cell line growth inhibition, 48 h

For `CN(C)Cc1c[nH]c2ncnc(O)c12`, the GI50 with T47D is 33.1 µM (inactive); with MCF7 it was 24.7 µM (inactive); in the assay on SN12C it was 34.2 µM (inactive); with RXF 393 it was 18.6 µM (inactive); with MDA-MB-231 it was 72.4 µM (inactive); with SF-268, 73.1 µM (inactive). In addition, the GI50 in the assay on RPMI-8226 is 20.6 µM (inactive); in the assay with Malme-3M, 77.1 µM (inactive); in the assay with UACC-257, 23 µM (inactive); in the assay with SK-OV-3 it was > 100 µM (inactive); in the assay on CAKI-1, 19.8 µM (inactive); in the assay on CCRF-CEM, 19.2 µM (inactive). Also, the GI50 with SR was 27.1 µM (inactive); in the assay with SK-MEL-5 it was 53.7 µM (inactive); in the assay with ACHN it was 38 µM (inactive); in the assay with M14, 41.2 µM (inactive); in the assay with SNB-75 it was 33.3 µM (inactive); in the assay with Hs-578T, > 100 µM (inactive). Further, in the assay on OVCAR-8, the GI50 was 29 µM (inactive).
On to `Cc1c(/C=N/NC(=S)Nc2ccc(Cl)cc2)c(=O)n(-c2ccccc2)n1C`, for which the GI50 with T47D is 46.6 µM (inactive); in the assay on MCF7 it was 19.8 µM (inactive); with SN12C, > 82.6 µM (inactive); in the assay on RXF 393 it was 14.8 µM (inactive); in the assay on MDA-MB-231, 0.637 µM (active); in the assay with SF-268, 15.8 µM (inactive). Further, the GI50 in the assay with RPMI-8226 was 39.1 µM (inactive); in the assay on Malme-3M it was > 34.7 µM (inactive); in the assay on UACC-257, > 83.6 µM (inactive); in the assay with SK-OV-3, 18.2 µM (inactive); in the assay on CAKI-1, 9.75 µM (inactive); in the assay on CCRF-CEM, > 75.2 µM (inactive). Further, the GI50 with SR was 4.93 µM (inactive); in the assay on SK-MEL-5, 20.1 µM (inactive); in the assay on ACHN, 16.1 µM (inactive); in the assay with M14, > 62.8 µM (inactive); in the assay with SNB-75, 15.9 µM (inactive); in the assay with Hs-578T it was 18.3 µM (inactive). In addition, the GI50 in the assay with OVCAR-8 was 24.9 µM (inactive).
For the molecule `COC(=O)c1c(CC(Cc2ccc3c(c2)CCCC3)C(=O)O)ccc2c1CCCC2` (stereo not given), the GI50 in the assay with T47D was 33.4 µM (inactive); in the assay on MCF7 it was 31.6 µM (inactive); in the assay with SN12C, 36.9 µM (inactive); in the assay with RXF 393 it was 35.2 µM (inactive); in the assay on MDA-MB-231, 27.9 µM (inactive); in the assay on SF-268 it was 37.1 µM (inactive). The GI50 in the assay on RPMI-8226 was 27.6 µM (inactive); with Malme-3M, 31.3 µM (inactive); in the assay with UACC-257 it was 16 µM (inactive); in the assay on SK-OV-3, 41 µM (inactive); in the assay with CAKI-1, 36 µM (inactive); in the assay with CCRF-CEM, 45.4 µM (inactive). Also, the GI50 with SR was 30.5 µM (inactive); in the assay with SK-MEL-5 it was 34.4 µM (inactive); in the assay with ACHN, 34 µM (inactive); in the assay with M14, 42.9 µM (inactive); in the assay with SNB-75 it was 36.4 µM (inactive); in the assay on Hs-578T, 25.8 µM (inactive). The GI50 with OVCAR-8 is 36.2 µM (inactive).
Regarding `Cn1c(=O)c2sc3cc4c(cc3c2c2ccccc21)sc1c(=O)n(C)c2ccccc2c14`, the GI50 in the assay with T47D is > 100 µM (inactive); in the assay on MCF7 it was > 100 µM (inactive); with SN12C it was > 100 µM (inactive); in the assay on RXF 393, 15.9 µM (inactive); with MDA-MB-231, 16.6 µM (inactive); with SF-268 it was 59.7 µM (inactive). In addition, the GI50 in the assay on RPMI-8226 was > 100 µM (inactive); in the assay on Malme-3M, 81.7 µM (inactive); in the assay with UACC-257 it was > 100 µM (inactive); with SK-OV-3 it was > 100 µM (inactive); with CAKI-1, > 100 µM (inactive); in the assay on CCRF-CEM, 40.1 µM (inactive). Further, the GI50 with SR was 25.8 µM (inactive); with SK-MEL-5, > 100 µM (inactive); in the assay with ACHN it was 19.2 µM (inactive); in the assay on M14, 88.1 µM (inactive); with SNB-75 it was 12.9 µM (inactive); in the assay with Hs-578T, 43.4 µM (inactive). The GI50 in the assay with OVCAR-8 was 41.7 µM (inactive).
`C[C@H](NC(=O)c1ccc(CNC(=O)/C=C/c2cccc(Oc3ccccc3)c2)cc1)c1ccccc1`: the GI50 with T47D was 98.2 µM (inactive); in the assay on MCF7 it was > 100 µM (inactive); in the assay on SN12C, > 100 µM (inactive); in the assay with RXF 393, 26.7 µM (inactive); with MDA-MB-231 it was > 100 µM (inactive); in the assay on SF-268 it was > 100 µM (inactive). Moreover, the GI50 is > 100 µM (inactive) in the assay on RPMI-8226; > 100 µM (inactive) in the assay with Malme-3M; > 100 µM (inactive) with UACC-257; > 100 µM (inactive) in the assay with SK-OV-3; 22.6 µM (inactive) with CAKI-1; > 100 µM (inactive) in the assay on CCRF-CEM. Moreover, the GI50 was 26.8 µM (inactive) with SR; 58.5 µM (inactive) in the assay with SK-MEL-5; 57.9 µM (inactive) in the assay with ACHN; > 100 µM (inactive) with M14; 15.2 µM (inactive) in the assay on SNB-75; 49.9 µM (inactive) with Hs-578T. In the assay with OVCAR-8, the GI50 is > 100 µM (inactive).
In the case of `[N-]=[N+]=NC1=C(C(=O)c2ccccc2)C(=O)c2cccc3cccc1c23`, the GI50 was 78.3 µM (inactive) in the assay with T47D; 6.79 µM (inactive) in the assay with MCF7; 63 µM (inactive) in the assay with SN12C; 22.4 µM (inactive) in the assay with RXF 393; 23.4 µM (inactive) with MDA-MB-231; 17.1 µM (inactive) in the assay on SF-268. Besides, the GI50 in the assay with RPMI-8226 is 37.2 µM (inactive); with Malme-3M, 46.7 µM (inactive); with UACC-257 it was 48.8 µM (inactive); in the assay with SK-OV-3, 26.6 µM (inactive); in the assay on CAKI-1, 40.6 µM (inactive); with CCRF-CEM it was 21.4 µM (inactive). For the same molecule, the GI50 with SR was 10.6 µM (inactive); with SK-MEL-5, 44.2 µM (inactive); in the assay with ACHN it was 37.7 µM (inactive); in the assay on M14, 49.9 µM (inactive); in the assay on SNB-75, 15.8 µM (inactive); in the assay on Hs-578T it was 20.7 µM (inactive). In the assay with OVCAR-8, the GI50 is 37 µM (inactive).
On to `Cc1c(CCCl)c(=O)n2c([nH]c3ccccc32)c1C#N`, for which the GI50 with T47D was 1.51 µM (inactive); in the assay with MCF7, 1.61 µM (inactive); in the assay with SN12C it was 1.36 µM (inactive); with RXF 393 it was 1.76 µM (inactive); in the assay with MDA-MB-231 it was 1.52 µM (inactive); with SF-268, 1.95 µM (inactive). Moreover, the GI50 in the assay on RPMI-8226 is 1.3 µM (inactive); with Malme-3M, 0.678 µM (active); in the assay on UACC-257 it was 2.73 µM (inactive); in the assay on SK-OV-3 it was 2.1 µM (inactive); in the assay on CAKI-1 it was 1.46 µM (inactive); in the assay with CCRF-CEM, 0.402 µM (active). Besides, the GI50 with SR was 0.527 µM (active); in the assay on SK-MEL-5 it was 1.42 µM (inactive); with ACHN, 1.43 µM (inactive); in the assay with M14 it was 1.6 µM (inactive); in the assay on SNB-75, 1.45 µM (inactive); in the assay on Hs-578T, 3.22 µM (inactive). Besides, the GI50 with OVCAR-8 is 1.6 µM (inactive).
Regarding `CC(C)C(/C=C/c1ccccc1)=N\NC(=S)NN`, the GI50 in the assay with T47D was 47 µM (inactive); with MCF7, 30.6 µM (inactive); in the assay on SN12C, > 100 µM (inactive); in the assay with RXF 393, 99.8 µM (inactive); with MDA-MB-231, > 100 µM (inactive); in the assay with SF-268, 20.7 µM (inactive). The GI50 with RPMI-8226 was 14.2 µM (inactive); in the assay with Malme-3M it was > 100 µM (inactive); in the assay with UACC-257, > 100 µM (inactive); in the assay with SK-OV-3, > 94.4 µM (inactive); in the assay on CAKI-1, 39.4 µM (inactive); in the assay on CCRF-CEM it was 3.93 µM (inactive). For the same molecule, the GI50 in the assay with SR is 0.546 µM (active); in the assay on SK-MEL-5, 33 µM (inactive); with ACHN, 40.6 µM (inactive); with M14, > 100 µM (inactive); with SNB-75 it was > 100 µM (inactive); with Hs-578T it was 80.5 µM (inactive). The GI50 in the assay on OVCAR-8 is 45.2 µM (inactive).
Take `CCOC(=O)Oc1cc2c(c(OC)c1OC)-c1ccc(SC)c(=O)cc1C(NC(=O)C(F)(F)F)CC2` (stereo not given): the GI50 was 8.97 µM (inactive) in the assay with T47D; < 0.001 µM (active) in the assay on MCF7; 0.00199 µM (active) in the assay with SN12C; < 0.001 µM (active) with RXF 393; 0.00172 µM (active) in the assay on MDA-MB-231; 0.00196 µM (active) in the assay on SF-268. The GI50 with RPMI-8226 was < 0.001 µM (active); with Malme-3M it was < 0.001 µM (active); in the assay with UACC-257, 0.00223 µM (active); in the assay with SK-OV-3, < 0.001 µM (active); in the assay with CAKI-1, 0.0147 µM (active); with CCRF-CEM, < 0.001 µM (active). In addition, the GI50 is 0.00128 µM (active) in the assay on SR; < 0.001 µM (active) in the assay on SK-MEL-5; 0.00224 µM (active) in the assay with ACHN; < 0.001 µM (active) in the assay on M14; < 0.001 µM (active) in the assay with SNB-75; < 0.001 µM (active) in the assay with Hs-578T. In addition, the GI50 with OVCAR-8 is 0.0015 µM (active).
With `COC(=O)C(COC(=O)/C=C/c1ccc(OC(C)=O)c(OC(C)=O)c1)NC(=O)/C=C/c1ccc(OC(C)=O)c(OC(C)=O)c1` (stereo not given), the GI50 with T47D was 16.6 µM (inactive); with MCF7, 28.3 µM (inactive); in the assay with SN12C it was 19.6 µM (inactive); in the assay with RXF 393, 37.1 µM (inactive); in the assay on MDA-MB-231 it was 14.9 µM (inactive); in the assay on SF-268, > 10 µM (inactive). Moreover, the GI50 is 19.6 µM (inactive) with RPMI-8226; 11.3 µM (inactive) in the assay with Malme-3M; 44.4 µM (inactive) in the assay on UACC-257; 67 µM (inactive) in the assay with SK-OV-3; 18.5 µM (inactive) with CAKI-1; 16.1 µM (inactive) in the assay on CCRF-CEM. In addition, the GI50 was 18 µM (inactive) with SR; 14.7 µM (inactive) with SK-MEL-5; 25.6 µM (inactive) with ACHN; 17.6 µM (inactive) in the assay with M14; 29.9 µM (inactive) in the assay on SNB-75; 30.3 µM (inactive) in the assay on Hs-578T. For the same molecule, the GI50 in the assay with OVCAR-8 was 30.4 µM (inactive).

These data come from ChEMBL document CHEMBL1201862, “PubChem BioAssay data set” (2004).
